Experimental data: patent US11576979B2, “Pyrrolobenzodiazepine prodrugs and antibody conjugates thereof” (GENENTECH, INC., priority 2016, dated 2023)

What was measured:
[1] = tested on: KPL-4; assay: CELLTITER GLO cell proliferation assay (Example 6); assay type: cell-based; details: KPL4, read-out: IC50 potency KPL-4, Table 4; data in parenthesis = repeat evaluations
Method: (§1) The toxicity of PBD monomer disulfide prodrugs and diaphorase prodrugs were evaluated against KPL-4, WSU-DLCL2, HCT-116, HCC1395 and Jurkat cell cultures. […] KPL-4 cells further have a high expression of DTD on the order of about 839 nRPKM (where nRPKM refers to normalized reads per Kb of transcript length per million mapped read).
(§2) Potency of the disulfide and DT-diaphorase prodrugs was measured by a cell proliferation assay employing the following protocol (CELLTITER GLO™ Luminescent Cell Viability Assay, Promega Corp.). First, an aliquot of 40 ul of cell culture containing about 8000 cells of WSU-DLCL2 cells (low NQO1 gene and GSH level), 4000 cells of KPL-4 (high NQO1 gene and GSH level), HCT-116 cells, HCC1395 cells or Jurkat cells in RPMI-1640 culture medium (supplemented with 10% fetal bovine serum, 2 mM glutamine, 50 uM cystine, and 0.015 g/L L-methionine) was deposited in each well of a 384-well flat clear bottom white polystyrene tissue culture-treated microplates (Corning, N.Y.). Second, control wells were prepared containing medium with and without cells. Third, compounds with and without disulfide or DT-diaphorase prodrugs (n=3) were added to the experimental wells using ECHO acoustic liquid handling technology (Labcyte Inc, Sunnyvale, Calif.) to create a 10-point dose-response curve in triplicate with 1:3× serial dilution. Fourth, cells were cultured in a humidified incubator set at 37° C. and maintaining an atmosphere of 5% CO2. Fifth, the plates were equilibrated to room temperature for approximately 30 minutes. Sixth, a volume of CELLTITER GLO™ Reagent equal to the volume of cell culture medium present in each well was added. Seventh, the contents were mixed for 10 minutes on an orbital shaker in the dark to induce cell lysis. Eighth, the plate was incubated at room temperature for 30 minutes to stabilize the luminescence signal. Ninth, luminescence was recorded and reported in graphs as % activity where RLU (relative luminescence units) was normalized to controls (no compound control minus no cell control). Tenth, data was plotted as individual points for each replicate (n=3) for each antibody as the mean of luminescence for each set of replicates, with standard deviation error bars.

[2] = tested on: WSU-DLCL2; assay: CELLTITER GLO cell proliferation assay (Example 6); assay type: cell-based; details: Homo sapiens, WSUDLCL2, read-out: IC50 potency WSU-DLCL2, Table 4; data in parenthesis = repeat evaluations
Method: as §1, §2

[3] = tested on: A2058; assay: CellTiter-Glo toxicity, 4 days (Example 9); assay type: cell-based; details: 4 days of drug incubation, Table 7A
Method: (§3) The toxicity of various PBD monomer disulfide prodrugs and PBD dimer disulfide prodrugs was evaluated on UACC-257, Igrov-1 and A2058 cell lines. Cells were seeded in 384-well plate and treated with drug 24 hours later. After 4 days of drug incubation, the cell viability was determined using Promega CellTiter-Glo luminescent reagent, which measures ATP level (an indirect measure of cell number). The luminescent intensity was measured on PerkinElmer Envision reader. The relative cell viability was calculated by normalizing to non-drug treatment control and was graphed using KleidaGraph software package. IC50 value was determined as the concentration to obtain 50% of the maximum cell killing.

[4] = tested on: Igrov-1; assay: CellTiter-Glo toxicity, 4 days (Example 9); assay type: cell-based; details: 4 days of drug incubation, Table 7A
Method: as §3

[5] = tested on: UACC-257; assay: CellTiter-Glo toxicity, 4 days (Example 9); assay type: cell-based; details: 4 days of drug incubation, Table 7A
Method: as §3

[6] = Disulfide cleavage by cysteine, LC/MS; assay type: physicochemical; details: 15 uM compound, 0.2 mM cysteine, pH 7.0, 37 C
Method: (§4) For disulfide cleavage determination, the compounds were incubated at 15 μM with 0.2 mM cysteine or 4 mM GSH in 100 mM Tris buffer pH 7.0 containing 5% methanol at 37° C. Aliquots were taken at specified time points and the samples were analyzed by LC/MS on Sciex TripleTOF 5600 on a Hypersil Gold C18 column (100×2.1, 1.9 Thermo Scientific). The column was eluted by a gradient of buffer A (0.1% formic acid in 10 mM ammonium acetate) to buffer B (0.1% formic acid in 10 mM ammonium acetate in 90% acetonitrile), 5% B 0-0.5 min, 5-25% B 0.5-8 min, 25-75% B 8-13 min, and 75-95% B 13-13.5 min, 95% B 13.5-14.5 min, 95-5% B 14.5-15 min at 0.4 mL/min. All products were separated and characterized by LC/MS/MS in a positive ESI ion mode. All analytes had the protonated molecular MH+ as the major species with little source fragmentation. Full scan accurate mass peak areas were used to estimate relative abundance of each component.

[7] = Disulfide cleavage by glutathione (GSH), LC/MS; assay type: physicochemical; details: 15 uM compound, 4 mM GSH, pH 7.0, 37 C
Method: as §4

[8] = GSH adduct formation and stability of quinones; assay type: physicochemical; details: 15 mM GSH; for % Rem. (percent remaining after 3 hours): 25 uM, pH 7.0, 37 C; for Degr (degradation): 3 hours
Method: For degradation analysis, the compounds were incubated at 25 μM with 15 mM GSH in 200 mM Tris buffer pH 7.0 containing 5% methanol at 37° C. for 3 hours. The control incubations were conducted without GSH. The samples were analyzed by LC/MS on Sciex TripleTOF 5600 on a Hypersil Gold C18 column (100×2.1, 1.9 μM, Thermo Scientific). The column was eluted by a gradient of buffer A (0.1% formic acid in 10 mM ammonium acetate) to buffer B (0.1% formic acid in 10 mM ammonium acetate in 90% acetonitrile), 5% B 0-0.5 min, 5-25% B 0.5-8 min, 25-75% B 8-13 min, and 75-95% B 13-13.5 min, 95% B 13.5-14.5 min, 95-5% B 14.5-15 min at 0.4 mL/min. All products were separated and characterized by LC/MS/MS in a positive ESI ion mode. Full scan accurate mass peak areas were used to estimate relative abundance of each component.

[9] = target: T1, DT Diaphorase (Homo sapiens, UniProt P15559); assay: in vitro DT diaphorase activated drug release assay (NADPH depletion); assay type: biochemical; details: 90 min
T1 construct: purchased Sigma D1315
T1 sequence (P15559 whole entry): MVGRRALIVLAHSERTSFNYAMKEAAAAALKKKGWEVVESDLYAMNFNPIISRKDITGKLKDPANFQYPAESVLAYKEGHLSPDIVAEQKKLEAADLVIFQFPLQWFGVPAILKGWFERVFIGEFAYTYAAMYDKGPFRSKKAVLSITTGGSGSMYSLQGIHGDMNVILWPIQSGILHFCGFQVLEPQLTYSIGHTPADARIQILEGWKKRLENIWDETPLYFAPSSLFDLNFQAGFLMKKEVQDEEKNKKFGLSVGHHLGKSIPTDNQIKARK
Method: An in vitro DT diaphorase activated drug release assay was used to measure NADPH depletion. DT diaphorase activated release of Norfloxacin and Payload (PBD) was measured by the in vitro depletion of NADPH. The assay method was modified from the absorbance measurement of NADPH at A340 (Osman et. al, Chemico-Biological Interactions 147 (2004) 99-108) due to the interference of compounds. The depletion of NADPH was measured by monitoring the decrease of fluorescence intensity of NADPH at 480 nm after being excited at […]. […] Prior to assay, dilute the stock to 1 mM as the 5× working solution; (5) DT Diaphorase specific Inhibitor: prepare 40 mM stock of Dicumarol (Sigma, Cat #M1390-5G, MW=336.29) in 0.13 N NaOH, stored at 4° C. Dilute the stock to 250 uM as the 5× working solution; (6) Compounds: dilute the Norfloxacin and PBD conjugated compounds in assay buffer to 250 uM as the 5× working solution; and (7) 384 well black plate with clear bottom. For the assay procedure: (1) The reaction mix containing 0.5 uM DT-D, 50 uM compound, […] NADPH was set up in a 384 well plate at 50 ul/well. For the control with DT Diaphorase inhibitor, Dicumarol was added in the reaction mix at final 50 uM for each compound. Reaction mix containing NADPH and compound only was also added as the baseline controls. The DT Diaphorase was added in the last step; and (2) The reaction mixes were incubated at room temperature for 5, 30, 90 min. The fluorescence intensity (RFU) of DNAPH was recorded on M1000 plate reader (Tecan) with excitation at 340 nm and emission at 480 nm. For data analysis, data was analyzed and plotted using Prism GraphPad 6. The depletion of NADPH was calculated by the formula below at reaction time point at 90 min wherein: % NADPH depletion=[…].

Row | % Rem. (percent remaining after 3 hours) [8] [%] | NADPH Dep. (NADPH depletion at 90 minutes) [9] | SMILES | IC50 ([3]; Homo sapiens, A2058, 96 h) [nM] | IC50 ([4]; Homo sapiens, IGROV-1, 96 h) [nM] | IC50 ([5]; Homo sapiens, UACC-257, 96 h) [nM] | % Remaining at 24 h by Cys [6] [%] | % Remaining at 24 h by GSH [7] [%] | further results
1 |  |  | C=C1C[C@H]2C(O)N(C(=O)OCC3(SSCC)CCCC3)c3cc(OC)c(OC)cc3C(=O)N2C1 (stereo partly shown) [PBD monomer disulfide prodrug 5] | 395 | 765 | 892 | 90.9 | 65.9 | IC50 [1]: 1060 nM; IC50 [2]: 1350 nM
2 | 55.5 | 26.1% | CCn1cc(C(=O)O)c(=O)c2cc(F)c(N3CCN(C(=O)OCc4c(C)c5c(n4C)C(=O)C=C(OC)C5=O)CC3)cc21 |  |  |  |  |  | Degr (degradation) [8]: yes
3 | 100 | 17.4% | CCn1cc(C(=O)O)c(=O)c2cc(F)c(N3CCN(C(=O)OCc4c(C(=O)OC)c5c(n4C)C(=O)C=C(OC)C5=O)CC3)cc21 |  |  |  |  |  | 
4 | 37.6 | 53.23% | CCn1cc(C(=O)O)c(=O)c2cc(F)c(N3CCN(C(=O)OCc4cc5c(n4C)C(=O)C=C(OC)C5=O)CC3)cc21 |  |  |  |  |  | Degr (degradation) [8]: yes
5 |  |  | C=C1C[C@H]2C(O)N(C(=O)OCc3ccccc3)c3cc(OC)c(OC)cc3C(=O)N2C1 (stereo partly shown) [PBD monomer control 2, reference compound] | > 20000 | > 20000 | > 20000 | 100 | 100 | IC50 [1]: > 10000 nM; IC50 [2]: > 10000 nM
6 | 100 | None | COC(=O)c1c2c(n(C)c1CO)C(=O)C=C(OC)C2=O [methyl 2-(hydroxymethyl)-5-methoxy-1-methyl-4,7-dioxo-4,7-dihydro-1H-indole-3-carboxylate] |  |  |  |  |  | 
7 | 82.1 | 91.5% | CCn1cc(C(=O)O)c(=O)c2cc(F)c(N3CCN(C(=O)OCc4c(C=O)c5c(n4C)C(=O)C=C(OC)C5=O)CC3)cc21 |  |  |  |  |  | Degr (degradation) [8]: yes
8 |  |  | C=C1C[C@H]2C(O)N(C(=O)OCC3(SSCC)CCOC3)c3cc(OC)c(OC)cc3C(=O)N2C1 (single isomer, unassigned) [PBD monomer disulfide prodrug 11] | 108 | 207 | 331 | 14.4 | 0 | 
9 |  |  | C=C1C[C@H]2C(O)N(C(=O)OC[C@@H](C)SSCC)c3cc(OC)c(OC)cc3C(=O)N2C1 (stereo partly shown) [PBD monomer disulfide prodrug 12] | 31.1 | 83.6 | 156 | 72.7 | 9.5 | 
10 |  |  | C=C1C[C@H]2C(O)N(C(=O)OCC3(SSCC)CCOC3)c3cc(OC)c(OC)cc3C(=O)N2C1 (single isomer, unassigned) [PBD monomer disulfide prodrug 30] |  |  |  | 47.1 | 0 | IC50 [3]: 108 nM; IC50 [4]: 235 nM; IC50 [5]: 308 nM
11 |  | 85.2% | CCn1cc(C(=O)O)c(=O)c2cc(F)c(N3CCN(C(=O)OCc4cn(C)c5c4C(=O)C(OC)=CC5=O)CC3)cc21 |  |  |  |  |  | 
12 |  |  | C=C1C[C@H]2C(O)N(C(=O)OCc3ccc(SSC(C)(C)C)cc3)c3cc(OC)c(OC)cc3C(=O)N2C1 (stereo partly shown) [PBD monomer disulfide prodrug 6] | 567 | 3260 | 497 | 85.4 | 2.1 | IC50 [1]: 806 nM; IC50 [2]: 2810 nM
13 |  |  | C=C1C[C@H]2C(O)N(C(=O)OCCSSC(C)(C)C)c3cc(OC)c(OC)cc3C(=O)N2C1 (stereo partly shown) [PBD monomer disulfide prodrug 16] | 5590 | 18500 | 19500 | 98.6 | 73.2 | 
14 |  |  | C=C1C[C@H]2C(O)N(C(=O)OCC3(SSC(C)C)CC3)c3cc(OC)c(OC)cc3C(=O)N2C1 (stereo partly shown) [PBD monomer disulfide prodrug 7] | 11000 | > 30000 | > 30000 | 96.1 | 89.7 | 
15 |  |  | C=C1C[C@H]2C(O)N(C(=O)OC[C@@H](C)SSC3COC3)c3cc(OC)c(OC)cc3C(=O)N2C1 (stereo partly shown) [PBD monomer disulfide prodrug 26] | 84.5 | 246 | 328 | 29.1 | 0 | 
16 |  |  | C=C1C[C@H]2C(O)N(C(=O)OCC3(SSCC(=O)O)CCC3)c3cc(OC)c(OC)cc3C(=O)N2C1 (stereo partly shown) [PBD monomer disulfide prodrug 9] | 292 | 1050 | 2110 | 81.1 | 1 | 
